Source: PMC3465710 (Biochemistry, 2011)
Several values for one entry are separate records, joined by “and”; a condition that tells them apart may be missing. Equal values may be shown once. Read-outs that look alike come from different tables or passages of the source. Blank lines part the entries; values can stand above or below the compound they belong to.

Legend:
[1] = tested on: [3H]-CB binding to red cell membranes; details: cited from earlier work
[2] = target: T1, GLUT1 (Homo sapiens, UniProt P11166); type: binding; details: for β (cooperativity parameter, second inhibitor molecule) / γ (hetero-cooperativity parameter) / Inhibition (type of modulation of CB binding) / Ki: 50 nM [3H]-CB; for β (cooperativity parameter, second inhibitor molecule) / γ (hetero-cooperativity parameter): eqn 6; for Inhibition (type of modulation of CB binding): competing ligand 0 to 100 μM; for α (homo-cooperativity factor): CB inhibition of [3H]-CB binding; for ΔG°: calculated as RT ln(1/KI); for β*γ: product
T1 sequence (P11166 1-492): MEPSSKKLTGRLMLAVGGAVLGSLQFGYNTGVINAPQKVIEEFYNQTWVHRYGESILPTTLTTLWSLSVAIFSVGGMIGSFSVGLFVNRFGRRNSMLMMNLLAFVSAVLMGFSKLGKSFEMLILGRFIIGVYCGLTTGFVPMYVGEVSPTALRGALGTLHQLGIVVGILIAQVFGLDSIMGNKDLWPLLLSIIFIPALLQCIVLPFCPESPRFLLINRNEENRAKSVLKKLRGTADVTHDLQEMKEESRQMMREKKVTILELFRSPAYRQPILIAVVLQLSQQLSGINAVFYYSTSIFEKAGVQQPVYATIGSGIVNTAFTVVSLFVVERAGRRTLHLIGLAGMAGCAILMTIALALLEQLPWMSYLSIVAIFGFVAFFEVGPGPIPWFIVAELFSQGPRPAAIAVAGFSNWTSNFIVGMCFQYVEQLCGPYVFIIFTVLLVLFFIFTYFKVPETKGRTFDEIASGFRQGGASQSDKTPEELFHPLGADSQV

[3] = target: T1, GLUT1; details: 4°C; cited from earlier work
[4] = target: T2, GLUT1-mediated sugar transport in red cells (Homo sapiens, UniProt P11166); assay: Equilibrium exchange 3-O-methylglucose uptake in red cells; type: cell-based
T2 sequence (P11166 1-492): T1 sequence (P11166 1-492)

[5] = target: T1, GLUT1
[6] = target: T1, GLUT1; assay: biochemical
[7] = target: T2, GLUT1-mediated sugar transport in red cells; assay: Zero-trans 3-O-methylglucose uptake in red cells; type: cell-based
[8] = Ki (affinity of unoccupied GLUT1 for ligand), 4°C, eqn 6, iterative free [I]
[9] = Ki, eqn 6, values in text or legends

SMILES: C=C1[C@@H](C)[C@H]2[C@H](Cc3ccccc3)NC(=O)[C@]23OC(=O)/C=C/[C@H](O)CCC[C@@H](C)C/C=C/[C@H]3[C@@H]1O [CCB, Cytochalasin B]
inhibition of CB binding [1]: high affinity
β (cooperativity parameter, second inhibitor molecule) ([2]; 4°C): 6.284 ± 3.849
γ (hetero-cooperativity parameter) ([2]; 4°C): 6.284 ± 3.849
β (cooperativity parameter, second inhibitor molecule) ([2]; 4°C, listed as CB): 6.3
γ (hetero-cooperativity parameter) ([2]; 4°C, listed as CB): 6.3
Inhibition (type of modulation of CB binding) [2]: 1
α (homo-cooperativity factor) ([2]; 4°C): 6.284 ±3.849
α (homo-cooperativity factor) ([2]; 4°C, listed as CB): 6.284 ± 0.558
ΔG° [2]: -8.88 kcal/mol
α ([2]; fit versus measured free CB): 5.441 ± 0.558
α ([2]; fit versus simulated free CB): 7.01 ± 0.53
α ([2]; fit versus total CB): 10.0 ± 1.0
β*γ [2]: 39
time constant of binding to GLUT1 [3]: 1 s

Ki [4]: 1200 ± 600 nM
Kmapp for 3MG uptake in presence of inhibitor ([4]; equilibrium exchange, 2 μM FSK): 48.5 ± 7.3 mM
Vmax for 3MG uptake in presence of inhibitor ([4]; equilibrium exchange, 2 μM FSK): 8.3 ± 0.7 mM/L/min
mode of inhibition of exchange sugar uptake ([4]; human erythrocytes): competitive inhibitor
β (cooperativity parameter, second inhibitor molecule) ([2]; 4°C): 1.54 ± 0.73
γ (hetero-cooperativity parameter) ([2]; 4°C): 0.93 ± 0.10 and 0.930 ± 0.103 and 0.9
γ (hetero-cooperativity parameter) ([2]; 4°C, listed as forskolin): 0.93
Inhibition (type of modulation of CB binding) [2]: 1
Ki [2, 8]: 3280 ± 960 nM
Ki [2, 9]: 3280 ± 980 nM
ΔG° [2]: -6.95 kcal/mol
β*γ [2]: 1
Kd for forskolin binding relative to Kd for CB binding [5]: at least 20 fold
α (homo-cooperativity factor) ([5]; FSK inhibition of [3H]-FSK binding, 4°C): 2.43 ± 0.23
α ([5]; fit versus measured free FSK): 2.400 ± 0.212
α ([5]; fit versus simulated free FSK): 2.434 ± 0.235
α ([5]; fit versus total FSK): 2.383 ± 2.116
Kd ([6]; KL, FSK inhibition of [3H]-FSK binding (50 nM), 4°C, eqn 7, assumes α = β = γ): 2750 ± 787 nM
Kd ([6]; Kl, fit versus measured free FSK): 2830 ± 754 nM
Kd ([6]; Kl, fit versus total FSK): 3330 ± 893 nM
Ki [7]: 1900 ± 400 nM
mode of inhibition of net sugar uptake ([7]; human erythrocytes): noncompetitive inhibitor
Kmapp for 3MG uptake in presence of inhibitor ([7]; zero-trans, 2 μM FSK): 1.09 ± 0.15 mM
Vmax for 3MG uptake in presence of inhibitor ([7]; zero-trans, 2 μM FSK): 0.055 ± 0.004 mM/L/min
SMILES: C=C[C@@]1(C)CC(=O)[C@]2(O)[C@@]3(C)[C@@H](O)CCC(C)(C)[C@@H]3[C@H](O)[C@H](OC(C)=O)[C@@]2(C)O1 [FSK, forskolin]

SMILES: C[C@H]1C/C=C/[C@H]2[C@@H]3O[C@]3(C)[C@@H](C)[C@H]3[C@H](Cc4ccccc4)NC(=O)[C@]32OC(=O)O/C=C/[C@@](C)(O)C1=O [CCE, Cytochalasin E]
Ki ([1]; read-out: Ki(app) for inhibition of [3H]-CB binding, red cell membranes): ≥ 100000 nM
β (cooperativity parameter, second inhibitor molecule) ([2]; 4°C): 7917 ± 2935
γ (hetero-cooperativity parameter) ([2]; 4°C): 0.555 ± 0.016
Inhibition (type of modulation of CB binding) [2]: 3
Kd ([2]; KL (Table 2, taken from Table 1), cytochalasins, rounded values): 100 nM
Ki [2, 8]: 99 ± 8 nM
Ki [2, 9]: 100 nM
ΔG° [2]: -8.88 kcal/mol
ΔΔG° ([2]; change in ΔG° relative to baseline cytochalasin or forskolin): 0.01 kcal/mol
β*γ [2]: 4394
